According to patent US9204653B2, “5-fluoro pyrimidine derivatives” (DOW AGROSCIENCES LLC, priority 2008, dated 2015):
Where two headings read alike, the source gives them in different places.

Legend:
[1] = test system: Mycosphaerella graminicola; Anamorph: Septoria tritici; Bayer Code SEPTTR; experiment: Leaf blotch of wheat, foliar fungicide treatment, one day protectant (1DP) or three day curative (3DC); assay type: in vivo, Septoria tritici on wheat plants (variety Yuma); conditions: Zymoseptoria tritici, rating of percent disease control
[2] = test system: Cercospora beticola; Bayer Code CERCBE; experiment: Leaf spot of sugar beets; assay type: in vivo, Cercospora beticola on sugar beets (variety HH-88); conditions: 24 h, % disease control rating, one day protectant; for pest or weed control at 25 ppm: read-out: CERCBE 1 DP 25 ppm; for pest or weed control at 75 ppm: read-out: CERCBE 1 DP 75 ppm
[3] = test system: Venturia inaequalis; Bayer Code VENTIN; experiment: Apple scab; assay type: in vivo; conditions: 24 h, % disease control rating, one day protectant; for pest or weed control at 25 ppm: read-out: VENTIN 1 DP 25 ppm; for pest or weed control at 75 ppm: read-out: VENTIN 1 DP 75 ppm
[4] = 24 h, one day protectant, read-out: SETTTR 1DP 25 ppm
[5] = 24 h, one day protectant, read-out: SEPTTR 1DP 100 ppm
[6] = 72 h, three day curative, read-out: SEPTTR 3DC 25 ppm
[7] = 72 h, three day curative, read-out: SEPTTR 3DC 100 ppm

Row | SMILES | pest or weed control at 25 ppm [1, 4] | pest or weed control at 100 ppm [1, 5] | pest or weed control at 25 ppm [1, 6] | pest or weed control at 100 ppm [1, 7] | pest or weed control at 25 ppm [2] | pest or weed control at 75 ppm [2] | pest or weed control at 25 ppm [3] | pest or weed control at 75 ppm [3]
1 | Nc1nc(OC2CCCc3cccnc32)ncc1F (centres unmarked) [Compound 560] | 0 to 25% | 26 to 50% | 0 to 25% | 76 to 100% | 0 to 25% | 26 to 50% | 0 to 25% | 76 to 100%
2 | C=CCc1cc(COc2ncc(F)c(N)n2)cc(OC)c1OC [Compound 569] | 76 to 100% | 76 to 100% | 51 to 75% | 76 to 100% | 26 to 50% | 76 to 100% | 76 to 100% | 76 to 100%
3 | CN(C)/C=N/c1nc(OCc2cccs2)ncc1F [Compound 570] | 76 to 100% | 76 to 100% | 76 to 100% | 76 to 100% | 0 to 25% | 26 to 50% | 26 to 50% | 76 to 100%
4 | Nc1nc(OCc2cnc(Cl)c(Cl)c2)ncc1F [Compound 582] | 76 to 100% | 76 to 100% | 76 to 100% | 76 to 100% | 51 to 75% | 51 to 75% | 76 to 100% | 76 to 100%
5 | CCn1nccc1Oc1ncc(F)c(N)n1 [Compound 584] | 0 to 25% | 76 to 100% | 0 to 25% | 76 to 100% | 26 to 50% | 26 to 50% | 26 to 50% | 26 to 50%
6 | Nc1nc(Oc2cccc(Cl)c2)ncc1F [Compound 593] | 0 to 25% | 51 to 75% |  |  | 26 to 50% | 51 to 75% | 76 to 100% | 76 to 100%
7 | Fc1cnc(OCc2ccccc2)nc1/N=C/N1CCOCC1 [Compound 626] | 76 to 100% | 76 to 100% | 76 to 100% | 76 to 100% | 0 to 25% | 0 to 25% | 26 to 50% | 76 to 100%
8 | Nc1nc(OCc2csc3ccccc23)ncc1F [Compound 630] | 76 to 100% | 76 to 100% | 76 to 100% | 76 to 100% | 0 to 25% | 0 to 25% | 51 to 75% | 76 to 100%
9 | C=CC(C)Oc1ncc(F)c(N)n1 (centres unmarked) [Compound 631] | 0 to 25% | 0 to 25% | 0 to 25% | 0 to 25% | 0 to 25% | 0 to 25% | 0 to 25% | 26 to 50%
10 | Nc1nc(OCCCc2ccccn2)ncc1F [Compound 635] | 26 to 50% | 76 to 100% | 0 to 25% | 76 to 100% | 26 to 50% | 26 to 50% | 26 to 50% | 76 to 100%
11 | COc1ccc(Oc2ncc(F)c(NC(C)=O)n2)cc1 [Compound 649] | 0 to 25% | 26 to 50% | 0 to 25% | 76 to 100% | 0 to 25% | 0 to 25% | 26 to 50% | 26 to 50%
